From patent US9833497B2, “Human originated EGF domain proteins and use of the same” (CHENGDU SOURCEBIO LIMITED-LIABILITY COMPANY, priority 2013, dated 2017)

Legend:
Type in all cases: cell-based
[1] = test system: Proteus vulgaris; assay: MIC against Gram-negative bacteria: Proteus vulgaris; conditions: for MIC P. vulgaris: two-fold serial dilution; for MIC: P. vulgaris
Summary of the method: (§1)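 Purified recombinant human EGF domain proteins are tested by broth dilution in LB against a 5×10^5 CFU/mL inoculum, with two-fold serial dilutions run in triplicate. Plates are incubated at 37° C with shaking, and the MIC is read as the lowest protein concentration without growth.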

[2] = test system: Klebsiella pneumonia; assay: MIC against Gram-negative bacteria: Klebsiella pneumonia; conditions: for MIC K. pneumonia: two-fold serial dilution; for MIC: K. pneumonia
Summary of the method: as §1

[3] = test system: Moraxella catarrhalis; assay: MIC against Gram-negative bacteria: Moraxella catarrhalis; conditions: for MIC M. catarrhalis: two-fold serial dilution; for MIC: M. catarrhalis
Summary of the method: as §1

[4] = test system: Aeromonas hydrophila; assay: MIC against Gram-negative bacteria: Aeromonas hydrophila; conditions: for MIC A. hydrophila: two-fold serial dilution; for MIC: A. hydrophila
Summary of the method: as §1

[5] = test system: Proteus mirabilis; assay: MIC against Gram-negative bacteria: Proteus mirabilis; conditions: for MIC P. mirabilis: two-fold serial dilution; for MIC: P. mirabilis
Summary of the method: as §1

[6] = test system: Citrobacter diversus; assay: MIC against Gram-negative bacteria: Citrobacter diversus; conditions: for MIC C. diversus: two-fold serial dilution; for MIC: C. diversus
Summary of the method: as §1

[7] = test system: Serratia marcescens; assay: MIC against Gram-negative bacteria: Serratia marcescens; conditions: for MIC S. marcescens: two-fold serial dilution; for MIC: S. marcescens
Summary of the method: as §1

[8] = test system: E. coli DH5α; assay: Antibacterial activity: MIC and growth curve against E. coli DH5α in 96-well plate; conditions: minimal inhibitory concentration against E. coli DH5α; 96-well plate, 5×10^5 CFU/mL, 37° C., judged after 8 h
Summary of the method: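 Log-phase DH5α (OD600 about 0.5, 37° C, 185 rpm in LB) was pelleted, resuspended in fresh LB and seeded at 5×10^5 CFU/mL with recombinant protein at 50, 25 and 12.5 μg/mL (two-fold series), in triplicate. Plates were shaken at 175 rpm, 37° C, and OD600 was read every 30 min. MIC was the lowest concentration with no growth.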

[9] = test system: Pseudomonas aeruginosa; assay: MIC against Gram-negative bacteria: Pseudomonas aeruginosa; conditions: for MIC P. aeruginosa: two-fold serial dilution; for MIC: P. aeruginosa
Summary of the method: as §1

[10] = test system: E. coli BL21; assay: MIC against Gram-negative bacteria: E. coli BL21; conditions: for MIC E. coli BL21: two-fold serial dilution
Summary of the method: as §1

[11] = test system: Enterobacter cloacae; assay: MIC against Gram-negative bacteria: Enterobacter cloacae; conditions: for MIC E. cloacae: two-fold serial dilution; for MIC: E. cloacae
Summary of the method: as §1

[12] = 10 h cultivation at 37° C., 5×10^5 CFU/mL
[13] = Proteus vulgaris, 96-well plate, 5×10^5 CFU/mL, 37° C., 10 h
[14] = Klebsiella pneumonia, 96-well plate, 5×10^5 CFU/mL, 37° C., 10 h
[15] = Moraxella catarrhalis, 96-well plate, 5×10^5 CFU/mL, 37° C., 10 h
[16] = Aeromonas hydrophila, 96-well plate, 5×10^5 CFU/mL, 37° C., 10 h
[17] = Proteus mirabilis, 96-well plate, 5×10^5 CFU/mL, 37° C., 10 h
[18] = Citrobacter diversus, 96-well plate, 5×10^5 CFU/mL, 37° C., 10 h
[19] = Serratia marcescens, 96-well plate, 5×10^5 CFU/mL, 37° C., 10 h
[20] = Pseudomonas aeruginosa, 96-well plate, 5×10^5 CFU/mL, 37° C., 10 h
[21] = E. coli BL21, 96-well plate, 5×10^5 CFU/mL, 37° C., 10 h
[22] = Enterobacter cloacae, 96-well plate, 5×10^5 CFU/mL, 37° C., 10 h
[23] = E. coli BL21, 10 h cultivation at 37° C.
[24] = 96-well plate, 5×10^5 CFU/mL, 37° C., 10 h

PRT1120 (DEDECASSPCQHGGRCLQRSDPALYGGVQAAFPGAFSFRHAAGFLCHCPPGFEGADCG; listed as Homo sapiens)
12.5 µg/mL: MIC P. vulgaris [1, 12] | MIC M. catarrhalis [3, 12] | MIC A. hydrophila [4, 12] | MIC S. marcescens [7, 12] | MIC E. coli BL21 [10, 12]
25 µg/mL: MIC [8] | MIC P. aeruginosa [9, 12] | MIC E. cloacae [11, 12]
50 µg/mL: MIC K. pneumonia [2, 12] | MIC P. mirabilis [5, 12] | MIC C. diversus [6, 12]

PRT1251 (CAFVCADCGSGHCDFQSGRCLCSPGVHGPHCN; listed as Homo sapiens)
50 µg/mL: MIC against C. diversus [6, 18] | MIC against S. marcescens [7, 19] | MIC against P. aeruginosa [9, 20]
12.5 µg/mL: MIC against P. mirabilis [5, 17] | MIC against E. cloacae [11, 22]
25 µg/mL: MIC against P. vulgaris [1, 13] | MIC against K. pneumonia [2, 14] | MIC against M. catarrhalis [3, 15] | MIC against A. hydrophila [4, 16] | MIC against E. coli BL21 [10, 21]
100 µg/mL: MIC [8]

PRT948 (DINECLSNPCSSEGSLDCIQLTNDYLCVCRSAFTGRHCE; listed as Homo sapiens)
12.5 µg/mL: MIC ([1]; 10 h cultivation at 37° C.) | MIC ([2]; 10 h cultivation at 37° C.) | MIC ([6]; 10 h cultivation at 37° C.) | MIC [10, 23]
50 µg/mL: MIC ([3]; 10 h cultivation at 37° C.) | MIC ([7]; 10 h cultivation at 37° C.) | MIC [8] | MIC ([9]; 10 h cultivation at 37° C.) | MIC ([11]; 10 h cultivation at 37° C.)
25 µg/mL: MIC ([4]; 10 h cultivation at 37° C.) | MIC ([5]; 10 h cultivation at 37° C.)

PRT1058 (DIDECQLGEHSCGENASCTNTEGGYTCMCAGRLSEPGLICP; listed as Homo sapiens)
12.5 µg/mL: MIC P. mirabilis [5, 12] | MIC C. diversus [6, 12] | MIC S. marcescens [7, 12] | MIC [8] | MIC E. cloacae [11, 12]
50 µg/mL: MIC P. vulgaris [1, 12] | MIC M. catarrhalis [3, 12] | MIC A. hydrophila [4, 12] | MIC P. aeruginosa [9, 12]
25 µg/mL: MIC K. pneumonia [2, 12] | MIC E. coli BL21 [10, 12]

PRT1444 (HHIPCPEHYNGFCMHGKCEHSINMQEPSCRCDAGYTGQHCE; listed as Homo sapiens)
50 µg/mL: MIC against P. vulgaris ([1]; Proteus vulgaris, 5×10^5 CFU/mL, 10 h cultivation at 37° C.) | MIC against C. diversus ([6]; Citrobacter diversus, 5×10^5 CFU/mL, 10 h cultivation at 37° C.) | MIC against P. aeruginosa ([9]; Pseudomonas aeruginosa, 5×10^5 CFU/mL, 10 h cultivation at 37° C.)
12.5 µg/mL: MIC against M. catarrhalis ([3]; Moraxella catarrhalis, 5×10^5 CFU/mL, 10 h cultivation at 37° C.) | MIC [8] | MIC against E. cloacae ([11]; Enterobacter cloacae, 5×10^5 CFU/mL, 10 h cultivation at 37° C.)
25 µg/mL: MIC against K. pneumonia ([2]; Klebsiella pneumonia, 5×10^5 CFU/mL, 10 h cultivation at 37° C.) | MIC against A. hydrophila ([4]; Aeromonas hydrophila, 5×10^5 CFU/mL, 10 h cultivation at 37° C.) | MIC against P. mirabilis ([5]; Proteus mirabilis, 5×10^5 CFU/mL, 10 h cultivation at 37° C.) | MIC against S. marcescens ([7]; Serratia marcescens, 5×10^5 CFU/mL, 10 h cultivation at 37° C.) | MIC against E. coli BL21 ([10]; E. coli BL21, 5×10^5 CFU/mL, 10 h cultivation at 37° C.)

PRT532 (CWCSALGSYQMPCSSVTGQCECRPGVTGQRCDRCLSGAYDFPHCQGSSSACDP; listed as Homo sapiens)
12.5 µg/mL: MIC against K. pneumonia [2, 24] | MIC against A. hydrophila [4, 24] | MIC against P. mirabilis [5, 24] | MIC against C. diversus [6, 24] | MIC against S. marcescens [7, 24] | MIC [8] | MIC against P. aeruginosa [9, 24] | MIC against E. cloacae [11, 24]
50 µg/mL: MIC against P. vulgaris [1, 24] | MIC against M. catarrhalis [3, 24] | MIC against E. coli BL21 [10, 24]

PRT138 (PCHNNATCEDSVDNYTCHCWPGYTGAQCE; listed as Homo sapiens)
25 µg/mL: MIC (μg/mL) K. pneumonia [2, 14] | MIC (μg/mL) A. hydrophila [4, 16] | MIC (μg/mL) S. marcescens [7, 19]
100 µg/mL: MIC (μg/mL) M. catarrhalis [3, 15]
50 µg/mL: MIC (μg/mL) E. coli BL21 [10, 21] | MIC (μg/mL) E. cloacae [11, 22]
12.5 µg/mL: MIC (μg/mL) P. vulgaris [1, 13] | MIC (μg/mL) P. mirabilis [5, 17] | MIC (μg/mL) C. diversus [6, 18] | MIC [8] | MIC (μg/mL) P. aeruginosa [9, 20]

PRT974 (EADPCLSRPCLHGGVCSAAHPGFRCTCLESFTGPQCQ; listed as Homo sapiens)
25 µg/mL: MIC ([1]; 10 h cultivation at 37° C.) | MIC ([6]; 10 h cultivation at 37° C.) | MIC [8]
12.5 µg/mL: MIC ([3]; 10 h cultivation at 37° C.) | MIC ([7]; 10 h cultivation at 37° C.) | MIC ([9]; 10 h cultivation at 37° C.) | MIC ([11]; 10 h cultivation at 37° C.)
50 µg/mL: MIC ([2]; 10 h cultivation at 37° C.) | MIC ([4]; 10 h cultivation at 37° C.) | MIC ([5]; 10 h cultivation at 37° C.) | MIC [10, 23]

PRT1200 (DIDECSEGIIECHNHSRCVNLPGWYHCECRSGFHDDGTY; listed as Homo sapiens)
50 µg/mL: MIC against M. catarrhalis [3, 15] | MIC against S. marcescens [7, 19]
25 µg/mL: MIC against A. hydrophila [4, 16] | MIC against P. mirabilis [5, 17] | MIC against E. cloacae [11, 22]
12.5 µg/mL: MIC against P. vulgaris [1, 13] | MIC against K. pneumonia [2, 14] | MIC against C. diversus [6, 18] | MIC [8] | MIC against P. aeruginosa [9, 20] | MIC against E. coli BL21 [10, 21]

PRT523 (CSCGRRLCEEMTGQCRCPPRTVRPQCEVCETHSFSFHPMAGCEG; listed as Homo sapiens)
50 µg/mL: MIC against P. mirabilis [5, 24] | MIC against C. diversus [6, 24] | MIC against P. aeruginosa [9, 24]
25 µg/mL: MIC against K. pneumonia [2, 24] | MIC against A. hydrophila [4, 24] | MIC against E. coli BL21 [10, 24]
12.5 µg/mL: MIC against P. vulgaris [1, 24] | MIC against M. catarrhalis [3, 24] | MIC against S. marcescens [7, 24] | MIC [8] | MIC against E. cloacae [11, 24]

PRT1134 (NVDDCLMRPCANGATCLDGINRFSCLCPEGFAGRFCT; listed as Homo sapiens)
12.5 µg/mL: MIC M. catarrhalis [3, 12] | MIC A. hydrophila [4, 12] | MIC P. mirabilis [5, 12] | MIC C. diversus [6, 12] | MIC S. marcescens [7, 12] | MIC [8] | MIC P. aeruginosa [9, 12] | MIC E. cloacae [11, 12]
50 µg/mL: MIC P. vulgaris [1, 12]
25 µg/mL: MIC K. pneumonia [2, 12] | MIC E. coli BL21 [10, 12]
